Data: US10688105B2, “Method of treating refractory rheumatoid arthritis associated with p53 mutation” (priority 2017, dated 2020)

How the values were obtained:
RAFLS [1] = experiment: Annexin V flow cytometry cell death in RAFLS; format: cell-based; conditions: 24 h; for celastrol-mediated autophagic cell death with inhibitor: 2 μM celastrol with 5 mM 3-MA or 5 μM BAPTA/AM
Protocol: (§1) Annexin V flow cytometry analysis was applied. Cell death and viability are measured using an Annexin V staining kit (BD Biosciences, San Jose, Calif., USA). Briefly, RAFLS are treated with 0-2 μM celastrol for 24 h. Cells are then harvested and analysed by multiparametric flow cytometry using FITC-Annexin V and Propidium iodide staining (BD Biosciences, San Jose, Calif., USA) according to the manufacturer's instructions. Flow cytometry is then carried out using a FACSCalibur flow cytometer (BD Biosciences, San Jose, Calif., USA). Data acquisition and analysis is performed with CellQuest (BD Biosciences, San Jose, Calif., USA). Data are obtained from three independent experiments.
as §1, with “performed.” for “applied.”, “1 or 2” for “0-2”, “celastrol in the presence or absence of autophagic inhibitor, 3-MA or calcium chelator, BAPTA/AM (BM)” for “celastrol”

RASFs [2] = experiment: Cytosolic Ca2+ dynamic, FLIPR Calcium 6 Assay Kit in RASFs; format: cell-based, human; conditions: for celastrol-induced calcium dynamic change under co-/pre-treatment: 1 μM celastrol with 5 μM Compound C or 1 μM thapsigargin; for calcium dynamic change: 1 μM, compound alone
Protocol: Intracellular cytosolic Ca^2+ dynamic was measured using the FLIPR Calcium 6 Assay Kit (Molecular Devices) according to the manufacturer's instructions. In brief, RASFs were plated at a density of 10000 cells per well in black wall/clear bottom 96-multiwell plates from Costar (Tewksbury, Mass., USA) and cultured for 24 h before treatment. After that, calcium 6 reagent was added directly to cells, and cells were incubated for an additional 2 h at 37° C. and 5% CO2. Indicated concentrations of celastrol or thapsigargin were then added to the wells and immediately subjected to data acquisition on the SpectraMax Paradigm Multi-Mode Microplate Reader (Molecular Devices) at room temperature using a 1-s reading interval throughout the experiments.

[3] = system: adjuvant-induced arthritis (AIA) rat model; experiment: Adjuvant-induced arthritis (AIA) rat model; conditions: AIA rats; for microCT of hind joints: swollen joints and cartilage destruction: left hind paw
RAFLS [4] = experiment: Endogenous LC3-II puncta (autophagy) in RAFLS; format: cell-based, human; conditions: 24 h
Protocol: RAFLS were treated with DMSO as a control group or celastrol at a concentration of 0.25, 0.5, 1 or 2 μM for 24 h.
(§2) Data from the bar chart represented the mean values±S.D. of three independent experiments; error bars, S.D. ***, P<0.001.
(§3) In order to determine endogenous expression of LC3-II, RASFs or RAFLS treated with indicated time and concentrations of celastrol (Cel) were fixed and visualised by fluorescence microscopy after staining with an LC3-II antibody followed by TRITC-conjugated anti-mouse secondary antibody.
To determine the endogenous expression of LC3-II, RAFLS were treated with indicated concentrations of celastrol in the presence or absence of BAPTA/AM (BM) for 24 h. The cells were then fixed and visualised by fluorescence microscopy after staining with an LC3-II antibody followed by TRITC-conjugated anti-mouse secondary antibody.

RASFs [5] = experiment: LC3 conversion Western blot in RASFs; format: cell-based, human; conditions: 2 μM celastrol, 10 μM BAPTA/AM
Protocol: In a detection of autophagic marker protein LC3 conversion, after celastrol treatments with or without the calcium chelator, BAPTA/AM (BM), RASFs were harvested and lysed in RIPA buffer (Cell Signaling Technologies Inc. (Beverly, Mass.). The cell lysates were then resolved by SDS-PAGE. After electrophoresis, the proteins from SDS-PAGE were transferred to nitrocellulose membrane which was then blocked with 5% non-fat dried milk for 60 minutes. The membrane was then incubated with LC3 primary antibodies (1:1000) in TBST overnight at 4° C. After that, the membrane was further incubated with HRP-conjugated secondary antibodies for 60 minutes. Finally, protein bands were visualized by using the ECL Western Blotting Detection Reagents (Invitrogen, Paisley, Scotland, UK).

RAFLS [6] = experiment: Cytosolic calcium level by Fluo-3 flow cytometry in RAFLS; format: cell-based, human; conditions: 1 μM 0-24 h, 0.1-2 μM 4 h
Protocol: Flow cytometry analysis was performed to determine the cytosolic calcium level. Intracellular free calcium was measured by a fluorescent dye, Fluo-3. Briefly, RAFLS were washed twice with DMEM media after Celastrol treatment (1 μM) for 4 h. Then cell suspensions were incubated with 5 μM Fluo-3 at 37° C. for 30 min. Then the cells were washed twice with HBSS. After re-suspended cell samples were subjected to FACS analysis. At least 10,000 events were analyzed.

RAFLS p53 R213* = experiment: MTT cytotoxicity assay, RAFLS transfected with p53 mutant R213*; format: cell-based, human
Protocol: (§4) Cytotoxicity Assays were performed. […] Data were obtained from triplication independent experiments.

P-gp = experiment: Rho123 exclusion assay in P-gp overexpressing RAFLS; format: cell-based, human; conditions: relatively low doses of celastrol
Protocol: At the end of the incubation, the accumulation of Rho123 was stopped by washing the cells five times with ice-cold PBS. After cell centrifugation, cell pellets were resuspended in 400 μL PBS. […] All data acquisition and analyses were performed with CellQuest (BD Biosciences, San Jose, Calif., USA) in triplicate in three independent experiments, and the results were shown as the mean of fluorescence intensity.

in vitro = conditions: human
Protocol: (§5) All test compounds were dissolved in DMSO at final concentrations of 50 mmol/L and stored at −20° C. before use. Cytotoxicity was assessed using the 3-(4, 5-dimethylthiazol-2-yl)-2, 5-diphenyltetrazolium bromide (MTT) (5.0 mg/ml) assay. Briefly, 4×10^3 RAFLS cells overexpressed with P-gp were seeded per well in 96-well plates before drug treatment. […] Cells without drug treatment were used as control. Subsequently, MTT (10 μL) was added to each well and incubated at 37° C. for 4 hours followed by the addition of 100 μL solubilization buffer (10% SDS in 0.01 mol/L HCl) and overnight incubation. A570 nm was determined from each well on the next day. The percentage of cell viability was calculated using the following formula: Cell viability (%)=Atreated/Acontrol×100. Data were obtained from triplication independent experiments.

RAFLS p53 WT = experiment: MTT cytotoxicity assay, RAFLS Ctrl p53 WT; format: cell-based, human
Protocol: as §4

P-gp ATPase = target: T1, P-gp ATPase (Homo sapiens, UniProt P08183); experiment: Pgp-Glo assay of P-gp ATPase activity; format: biochemical; conditions: celastrol 0.5, 1, 2 μM with 200 μM verapamil and ATP, 1 hour, 37° C.
T1 construct: purchased Promega, Madison, Wis
T1 sequence (P08183 whole entry): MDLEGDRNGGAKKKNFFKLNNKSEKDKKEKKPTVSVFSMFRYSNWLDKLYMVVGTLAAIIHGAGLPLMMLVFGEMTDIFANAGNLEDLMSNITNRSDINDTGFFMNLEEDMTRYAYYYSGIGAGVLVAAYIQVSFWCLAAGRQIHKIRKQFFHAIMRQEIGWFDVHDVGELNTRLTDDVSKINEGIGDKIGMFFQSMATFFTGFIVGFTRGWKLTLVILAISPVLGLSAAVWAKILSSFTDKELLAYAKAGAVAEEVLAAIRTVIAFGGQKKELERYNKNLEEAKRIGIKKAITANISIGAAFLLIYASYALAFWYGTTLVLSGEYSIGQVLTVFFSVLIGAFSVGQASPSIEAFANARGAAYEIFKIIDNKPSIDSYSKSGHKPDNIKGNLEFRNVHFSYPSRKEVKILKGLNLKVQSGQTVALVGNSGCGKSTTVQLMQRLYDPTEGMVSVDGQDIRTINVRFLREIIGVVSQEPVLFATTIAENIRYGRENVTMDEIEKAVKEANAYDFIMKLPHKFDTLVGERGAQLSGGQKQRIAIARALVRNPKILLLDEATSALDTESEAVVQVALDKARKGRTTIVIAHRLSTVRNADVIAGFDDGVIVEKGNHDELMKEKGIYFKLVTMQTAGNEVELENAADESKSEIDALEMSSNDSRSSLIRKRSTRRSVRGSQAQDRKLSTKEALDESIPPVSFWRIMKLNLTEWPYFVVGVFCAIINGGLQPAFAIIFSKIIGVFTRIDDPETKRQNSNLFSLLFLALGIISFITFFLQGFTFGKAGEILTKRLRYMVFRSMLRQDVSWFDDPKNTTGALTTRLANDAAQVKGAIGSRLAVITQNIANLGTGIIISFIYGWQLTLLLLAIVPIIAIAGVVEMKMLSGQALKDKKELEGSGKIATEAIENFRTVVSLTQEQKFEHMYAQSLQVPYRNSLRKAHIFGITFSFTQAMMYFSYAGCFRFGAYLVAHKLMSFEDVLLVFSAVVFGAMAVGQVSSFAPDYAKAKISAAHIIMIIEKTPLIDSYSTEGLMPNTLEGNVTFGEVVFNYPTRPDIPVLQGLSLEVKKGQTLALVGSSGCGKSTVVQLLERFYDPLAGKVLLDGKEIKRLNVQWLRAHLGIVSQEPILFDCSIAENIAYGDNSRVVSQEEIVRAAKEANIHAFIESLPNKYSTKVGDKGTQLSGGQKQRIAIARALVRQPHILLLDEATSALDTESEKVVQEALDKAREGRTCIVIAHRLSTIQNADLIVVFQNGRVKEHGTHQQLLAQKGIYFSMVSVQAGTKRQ
Protocol: The luminescence was then measured by P-gp Glo™ Assay System. Change in luminescence (RLU) represented the activity of P-gp, whereas the activity shown in the control group indicated the basal P-gp ATPase activity.
The luminescence of the sample reflects the ATP level in the sample, which is negatively correlated with the activity of P-gp ATPase and was recorded using the SpectraMax Paradigm Multi-Mode Microplate Reader (Molecular Devices). DMSO-treated activities are expressed as the percentage of basal activity. By comparing basal activity to test compound-treated activities, the compounds can be ranked as stimulating, inhibiting, or having no effect on basal P-gp ATPase activity.

[7] = MTT cytotoxicity assay, RAFLS; format: cell-based; conditions: human
Text: Data were obtained from triplication independent experiments.

[8] = system: P-gp-over-expressing RAFLS; experiment: Annexin V flow cytometry, celastrol with methotrexate in RAFLS; format: cell-based, human; conditions: celastrol 0.1-0.2 μM with 450 μM MTX, 24 h
Protocol: Celastrol-induced cell death was measured by flow cytometry analysis after annexin V staining.
as §1, with “performed.” for “applied.”, “Briefly, RAFLS are treated with 0-2 μM celastrol for 24 h.” left out

[9] = system: RAFLS p-gp over expression; experiment: MTT cytotoxicity assay, RAFLS overexpressed with P-gp; conditions: RAFLS p-gp over expression vs RAFLS
Protocol: as §5

RAFLS p53 N239S = experiment: MTT cytotoxicity assay, RAFLS transfected with p53 mutant N239S; format: cell-based, human
Protocol: as §4

RASFs [10] = experiment: Endogenous LC3-II puncta (autophagy) in RASFs; format: cell-based, human; conditions: 1 μM, 10-240 min
Protocol: RASFs were treated with DMSO as a control group or 1 μM celastrol for 10, 30, 60 or 240 min. The cells were then fixed and visualized for endogenous LC3-II expression by fluorescence microscopy using LC3-II antibody plus TRITC-conjugated anti-mouse secondary antibody.
as §2, §3

[11] = Homo sapiens, RA-FLS, 72 h, read-out: mean IC50
[12] = celastrol 1 and 2 mg/kg i.p., 36 days, vs vehicle-treated
[13] = RAFLS cells overexpressing P-gp

Q: With `Cn1cnc(N)c2ncnc1-2` [3-MA, 3-methyladenine] as the molecule, how does the “celastrol-mediated autophagic cell death with inhibitor” value (RAFLS [1]) read?
A: completely abolished

Q: With `c1cc(-c2cnn3cc(-c4ccc(OCCN5CCCCC5)cc4)cnc23)ccn1` [AMPK inhibitor] as the molecule, how does the “celastrol-induced calcium dynamic change under co-/pre-treatment” value (RASFs [2]) read?
A: no inhibitory effect

Q: Which results are given for `CC(=O)OCOC(=O)CN(CC(=O)OCOC(C)=O)c1ccccc1OCCOc1ccccc1N(CC(=O)OCOC(C)=O)CC(=O)OCOC(C)=O` [BAPTA/AM, reference compound]?
A: celastrol-mediated autophagic cell death with inhibitor (RAFLS [1]): completely abolished; anti-arthritic effect of celastrol with calcium chelator ([3]; celastrol 1 mg/kg + BAPTA/AM 3.5 mg/kg): retarded the anti-arthritic effect of celastrol; celastrol-induced endogenous LC3-II puncta formation with co-treatment (RAFLS [4]; 1 μM celastrol, 10 μM BAPTA/AM): dramatically suppressed; LC3-II conversion with co-treatment (RASFs [5]): inhibited LC3-II conversion

Q: Which results are given for `CC1=C(O)C(=O)C=C2C1=CC=C1[C@@]2(C)CC[C@@]2(C)[C@@H]3C[C@](C)(C(=O)O)CC[C@]3(C)CC[C@]12C` [Celastrol, celastrol]?
A: cell death (cytotoxicity), annexin V (RAFLS [1]; 0.25-2 μM): dose-dependent cytotoxicity; calcium mobilization (Fluo-3) (RAFLS [6]): time and dose-dependently disturbs calcium homeostasis; IC50 (RAFLS p53 R213*; [11]): 0.722 µM; Resistant factor, RF (RAFLS p53 R213*; RAFLS p53 R213* vs p53 WT): RF: 0.72; erythrocyte sedimentation rate (ESR) [3]: down-regulated; body weight or organ weight ([3]; 36 days): without impairment; arthritic scores [3, 12]: significantly reduced; hind paw volume [3, 12]: significantly reduced; microCT of hind joints: swollen joints and cartilage destruction [3]: markedly improved; Rho123 accumulation in P-gp overexpressing RAFLS (P-gp): gradually increased Rho123 accumulation in a dose-dependent manner; IC50 at 72 h (in vitro): 1.45 µM; calcium dynamic change (RASFs [2]): stimulated relative weak calcium dynamic; IC50 (RAFLS p53 WT; [11]): 0.996 µM; Resistant factor, RF (RAFLS p53 WT; RAFLS Ctrl p53 WT (reference)): RF: 1; verapamil-activated P-gp activity (P-gp ATPase): directly suppresses the activated form of P-gp in dose-dependently manner; IC50 at 72 h [7]: 1.3 µM; MTX-mediated cell death (sensitization) [8]: potentiating the toxicity of MTX; autophagy induction, endogenous LC3-II puncta (RAFLS [4]; 0.25-2 μM): dose-dependent autophagy induction; Resistant Factor [9]: 1.12; IC50 (RAFLS p53 N239S; [11]): 1.01 µM; Resistant factor, RF (RAFLS p53 N239S; RAFLS p53 N239S vs p53 WT): RF: 1.01; autophagy induction, endogenous LC3-II puncta (RASFs [10]): induced autophagy in time-dependent manner

Q: Which IC50 at 72 h (in vitro) does the source give for `COc1cc2c(c(OC)c1OC)-c1ccc(OC)c(=O)cc1[C@@H](NC(C)=O)CC2` [Colchicine, colchicine] here?
A: 46 µM

Q: What about the IC50 at 72 h [7] of the same molecule?
A: 11.3 µM

Q: And the “Resistant Factor” value [9]?
A: 4.07

Q: What does the source list for `C[C@@H]1C[C@H]2[C@@H]3CCC4=CC(=O)C=C[C@]4(C)[C@@]3(F)[C@@H](O)C[C@]2(C)[C@@]1(O)C(=O)CO` [Dexamethasone, dexamethasone]?
A: IC50 at 72 h (in vitro; [13]): > 2000 µM; IC50 at 72 h ([7]; RAFLS cells): 600 µM

Q: What does the source list for `CN(Cc1cnc2nc(N)nc(N)c2n1)c1ccc(C(=O)N[C@@H](CCC(=O)O)C(=O)O)cc1` [Methotrexate, methotrexate]?
A: erythrocyte sedimentation rate (ESR) [3]: down-regulated; microCT of hind joints: swollen joints and cartilage destruction [3]: markedly improved; IC50 at 72 h (in vitro; [13]): 838 µM; IC50 at 72 h ([7]; RAFLS cells): 219 µM; Resistant Factor [9]: 3.83

Q: What does the source list for `C[C@]12C=CC(=O)C=C1CC[C@@H]1[C@@H]2[C@@H](O)C[C@@]2(C)[C@H]1CC[C@]2(O)C(=O)CO` [Prednisolone, prednisolone]?
A: IC50 at 72 h (in vitro; [13]): 216 µM; IC50 at 72 h ([7]; RAFLS cells): 123 µM

Q: For `C/C=C(/C)C(=O)O[C@H]1C(C)=C2[C@H]([C@@H]1OC(=O)CCCCCCC)[C@@](C)(OC(C)=O)C[C@H](OC(=O)CCC)[C@@]1(O)[C@H]2OC(=O)[C@@]1(C)O` [thapsigargin], which “celastrol-induced calcium dynamic change under co-/pre-treatment” value (RASFs [2]) is on record?
A: extremely low response in calcium mobilization upon celastrol treatment

Q: And the calcium dynamic change (RASFs [2])?
A: significantly induced the calcium dynamic change
